Measurements as given in patent US12054483B2, “Small molecule inhibitors of DYRK/CLK and uses thereof” (Arizona Board of Regents on Behalf of the University of …, priority 2018, dated 2024).

Target: DYRK1A (Homo sapiens, UniProt Q13627)
Experiment: Affinity testing of compounds with DYRK1A (KD)
Type: binding
Conditions: DYRK1A affinity key classes

| Compound | Kd |
| --- | --- |
| Cc1cc(-c2ccc3ncc(-c4ccc(CN5CCN[C@H](C)C5)cc4)n3n2)ccn1 [Compound 94, (R)-3-(4-((3-methylpiperazin-1-yl)methyl)phenyl)-6-(2-methylpyridin-4-yl)imidazo[1,2-b]pyridazine] | 0.5 to 100 nM |
| FC1(F)CCCN(Cc2ccc(-c3cnc4ccc(-c5ccncc5)nn34)cc2)C1 [Compound 95] | 501 to 10000 nM |
| c1cc(-c2ccc3ncc(-c4ccc(CN5CCOCC5)cc4)n3n2)ccn1 [Compound 96, 4-(4-(6-(pyridin-4-yl)imidazo[1,2-b]pyridazin-3-yl)benzyl)morpholine] | 101 to 500 nM |
| c1cc(-c2ccc3ncc(-c4ccc(CN5CCCCC5)cc4)n3n2)ccn1 [Compound 97, 3-(4-(piperidin-1-ylmethyl)phenyl)-6-(pyridin-4-yl)imidazo[1,2-b]pyridazine] | 0.5 to 100 nM |
| FC1(F)CCN(Cc2ccc(-c3cnc4ccc(-c5ccncc5)nn34)cc2)C1 [Compound 98, 3-(4-((3,3-difluoropyrrolidin-1-yl)methyl)phenyl)-6-(pyridin-4-yl)imidazo[1,2-b]pyridazine] | 101 to 500 nM |
| FC1CN(Cc2ccc(-c3cnc4ccc(-c5ccncc5)nn34)cc2)C1 [Compound 99, 3-(4-((3-fluoroazetidin-1-yl)methyl)phenyl)-6-(pyridin-4-yl)imidazo[1,2-b]pyridazine] | 0.5 to 100 nM |
| CN1CCN(Cc2ccc(-c3cnc4ccc(-c5ccncc5)nn34)cc2)CC1 [Compound 100, 3-(4-((4-methylpiperazin-1-yl)methyl)phenyl)-6-(pyridin-4-yl)imidazo[1,2-b]pyridazine] | 101 to 500 nM |
| OC1CCCN(Cc2ccc(-c3cnc4ccc(-c5ccncc5)nn34)cc2)C1 (centres unmarked) [Compound 101, 1-(4-(6-(pyridin-4-yl)imidazo[1,2-b]pyridazin-3-yl)benzyl)piperidin-3-ol] | 101 to 500 nM |
| FC1(F)CN(Cc2ccc(-c3cnc4ccc(-c5ccncc5)nn34)cc2)C1 [Compound 102, 3-(4-((3,3-difluoroazetidin-1-yl)methyl)phenyl)-6-(pyridin-4-yl)imidazo[1,2-b]pyridazine] | 101 to 500 nM |
| c1cc(-c2ccc3ncc(-c4ccc(CN5CCCC5)cc4)n3n2)ccn1 [Compound 103, 6-(pyridin-4-yl)-3-(4-(pyrrolidin-1-ylmethyl)phenyl)imidazo[1,2-b]pyridazine] | 101 to 500 nM |
| CC(=O)N1CCN(Cc2ccc(-c3cnc4ccc(-c5ccncc5)nn34)cc2)CC1 [Compound 104, 1-(4-(4-(6-(pyridin-4-yl)imidazo[1,2-b]pyridazin-3-yl)benzyl)piperazin-1-yl)ethan-1-one] | 0.5 to 100 nM |
| Fc1cnccc1-c1ccc2ncc(-c3ccc(CN4CCOCC4)cc3)n2n1 [Compound 105, 4-(4-(6-(3-fluoropyridin-4-yl)imidazo[1,2-b]pyridazin-3-yl)benzyl)morpholine] | 501 to 10000 nM |
| N#Cc1cnccc1-c1ccc2ncc(-c3ccc(CN4CCOCC4)cc3)n2n1 [Compound 106, 4-(3-(4-(morpholinomethyl)phenyl)imidazo[1,2-b]pyridazin-6-yl)nicotinonitrile] | 501 to 10000 nM |
| COc1cc(-c2ccc3ncc(-c4ccc(CN5CCOCC5)cc4)n3n2)ccn1 [Compound 107, 4-(4-(6-(2-methoxypyridin-4-yl)imidazo[1,2-b]pyridazin-3-yl)benzyl)morpholine] | 101 to 500 nM |
| Nc1cc(-c2ccc3ncc(-c4ccc(CN5CCOCC5)cc4)n3n2)ccn1 [Compound 108, 4-(3-(4-(morpholinomethyl)phenyl)imidazo[1,2-b]pyridazin-6-yl)pyridin-2-amine] | 0.5 to 100 nM |
| Fc1cnccc1-c1ccc2ncc(-c3ccc(CN4CCCCC4)cc3)n2n1 [Compound 109, 6-(3-fluoropyridin-4-yl)-3-(4-(piperidin-1-ylmethyl)phenyl)imidazo[1,2-b]pyridazine] | 501 to 10000 nM |
| Nc1cc(-c2ccc3ncc(-c4ccc(CN5CCCCC5)cc4)n3n2)ccn1 [Compound 110, 4-(3-(4-(piperidin-1-ylmethyl)phenyl)imidazo[1,2-b]pyridazin-6-yl)pyridin-2-amine] | 0.5 to 100 nM |
| Nc1cc(-c2ccn3ncc(-c4ccc(CN5CCOCC5)cc4)c3n2)ccn1 [Compound 112, 4-(3-(4-(morpholinomethyl)phenyl)pyrazolo[1,5-a]pyrimidin-5-yl)pyridin-2-amine] | 501 to 10000 nM |
| O=c1cc(-c2ccn3ncc(-c4ccc(CN5CCOCC5)cc4)c3n2)cc[nH]1 [Compound 113, 4-(3-(4-(morpholinomethyl)phenyl)pyrazolo[1,5-a]pyrimidin-5-yl)pyridin-2(1H)-one] | 501 to 10000 nM |
| Nc1cc(-c2ccn3ncc(-c4ccc(CN5CCOCC5)s4)c3n2)ccn1 [Compound 114, 4-(3-(5-(morpholinomethyl)thiophen-2-yl)pyrazolo[1,5-a]pyrimidin-5-yl)pyridin-2-amine] | 101 to 500 nM |
| Cc1nc2ccc(-c3ccncc3)nc2n1-c1ccc(CO)cc1 [Compound 115, (4-(2-methyl-5-(pyridin-4-yl)-3H-imidazo[4,5-b]pyridin-3-yl)phenyl)methanol] | 0.5 to 100 nM |

| Compound | Kd |
| --- | --- |
| CC(=O)N1CCN(Cc2ccc(-n3c(C)nc4ccc(-c5ccncc5)nc43)cc2)CC1 [Compound 116, 1-(4-(4-(2-methyl-5-(pyridin-4-yl)-3H-imidazo[4,5-b]pyridin-3-yl)benzyl)piperazin-1-yl)ethan-1-one] | 0.5 to 100 nM |
| Cc1nc2ccc(-c3ccncc3)nc2n1-c1ccc(CN2[C@H](C)COC[C@@H]2C)cc1 [Compound 117, (3S,5R)-3,5-dimethyl-4-(4-(2-methyl-5-(pyridin-4-yl)-3H-imidazo[4,5-b]pyridin-3-yl)benzyl)morpholine] | 101 to 500 nM |
| Cc1nc2ccc(-c3ccncc3)nc2n1-c1ccc(CN2C[C@H](C)O[C@@H](C)C2)cc1 [Compound 118, (2S,6S)-2,6-dimethyl-4-(4-(2-methyl-5-(pyridin-4-yl)-3H-imidazo[4,5-b]pyridin-3-yl)benzyl)morpholine] | 0.5 to 100 nM |
| Cc1nc2ccc(-c3ccncc3)nc2n1-c1ccc(CN2C[C@@H](C)N(C)[C@@H](C)C2)cc1 [Compound 119, 2-methyl-5-(pyridin-4-yl)-3-(4-(((3R,5S)-3,4,5-trimethylpiperazin-1-yl)methyl)phenyl)-3H-imidazo[4,5-b]pyridine] | 0.5 to 100 nM |
| Cc1nc2ccc(-c3ccncc3)nc2n1-c1ccc(CN2CCOC(C)(C)C2)cc1 [Compound 120, 2,2-dimethyl-4-(4-(2-methyl-5-(pyridin-4-yl)-3H-imidazo[4,5-b]pyridin-3-yl)benzyl)morpholine] | 0.5 to 100 nM |
| Cc1nc2ccc(-c3ccncc3)nc2n1-c1ccc(CN2CCC3(COC3)C2)cc1 [Compound 121, 6-(4-(2-methyl-5-(pyridin-4-yl)-3H-imidazo[4,5-b]pyridin-3-yl)benzyl)-2-oxa-6-azaspiro[3.4]octane] | 0.5 to 100 nM |
| Cc1nc2ccc(-c3ccncc3)nc2n1-c1ccc(CN2CC3CCC(C2)O3)cc1 [Compound 122, 3-(4-(2-methyl-5-(pyridin-4-yl)-3H-imidazo[4,5-b]pyridin-3-yl)benzyl)-8-oxa-3-azabicyclo[3.2.1]octane] | 0.5 to 100 nM |
| Cc1nc2ccc(-c3ccncc3)nc2n1-c1ccc(CN2[C@@H]3COC[C@H]2CC(=O)C3)cc1 [Compound 123, (1R,5S)-9-(4-(2-methyl-5-(pyridin-4-yl)-3H-imidazo[4,5-b]pyridin-3-yl)benzyl)-3-oxa-9-azabicyclo[3.3.1]nonan-7-one] | 101 to 500 nM |
| Cc1nc2ccc(-c3ccncc3)nc2n1-c1ccc(CN2C[C@@H]3C[C@@H]2CO3)cc1 [Compound 124, (1S,4R)-5-(4-(2-methyl-5-(pyridin-4-yl)-3H-imidazo[4,5-b]pyridin-3-yl)benzyl)-2-oxa-5-azabicyclo[2.2.1]heptane] | 0.5 to 100 nM |
| Cc1nc2ccc(-c3ccncc3)nc2n1-c1ccc(CN2CCN(C)CC2)cc1 [Compound 125, 2-methyl-3-(4-((4-methylpiperazin-1-yl)methyl)phenyl)-5-(pyridin-4-yl)-3H-imidazo[4,5-b]pyridine] | 0.5 to 100 nM |
| Cc1nc2ccc(-c3ccncc3)nc2n1-c1ccc(CN2CCS(=O)(=O)CC2)cc1 [Compound 126, 4-(4-(2-methyl-5-(pyridin-4-yl)-3H-imidazo[4,5-b]pyridin-3-yl)benzyl)thiomorpholine 1,1-dioxide] | 0.5 to 100 nM |
| Cc1nc2ccc(-c3ccnc(N)c3)c(F)c2n1-c1ccc(N2CCOCC2)cc1 [Compound 127, 4-(7-fluoro-2-methyl-1-(4-morpholinophenyl)-1H-benzo[d]imidazol-6-yl)pyridin-2-amine] | 0.5 to 100 nM |
| Cc1nc2ncc(-c3ccnc(N)c3)nc2n1-c1ccc(N2CCOCC2)cc1 [Compound 128, 4-(2-methyl-1-(4-morpholinophenyl)-1H-imidazo[4,5-b]pyrazin-6-yl)pyridin-2-amine] | 501 to 10000 nM |
| Cc1nc2ncc(-c3ccncc3)nc2n1-c1ccc(N2CCOCC2)cc1 [Compound 129, 4-(4-(2-methyl-6-(pyridin-4-yl)-1H-imidazo[4,5-b]pyrazin-1-yl)phenyl)morpholine] | 501 to 10000 nM |
| Cc1nc2ncc(-c3ccnc(N)c3)nc2n1-c1ccc2[nH]cnc2c1 [Compound 130, 4-(1-(1H-benzo[d]imidazol-5-yl)-2-methyl-1H-imidazo[4,5-b]pyrazin-6-yl)pyridin-2-amine] | 101 to 500 nM |
| Cc1nc2ncc(-c3ccncc3)nc2n1-c1ccc2[nH]cnc2c1 [Compound 131, 1-(1H-benzo[d]imidazol-5-yl)-2-methyl-6-(pyridin-4-yl)-1H-imidazo[4,5-b]pyrazine] | 101 to 500 nM |
| Cc1nc2ccc(-c3ccncc3)nc2n1-c1ccc(N2CCN(C)CC2)cc1 [Compound 132, 2-methyl-3-(4-(4-methylpiperazin-1-yl)phenyl)-5-(pyridin-4-yl)-3H-imidazo[4,5-b]pyridine] | 0.5 to 100 nM |
| Cc1nc2ccc(-c3ccncc3)nc2n1-c1ccc(CN2CCOCC2)nc1 [Compound 133, 4-((5-(2-methyl-5-(pyridin-4-yl)-3H-imidazo[4,5-b]pyridin-3-yl)pyridin-2-yl)methyl)morpholine] | 101 to 500 nM |
| Cc1nc2ccc(-c3ccncc3)nc2n1-c1ccc(N2CCOCC2)cc1 [Compound 134, 4-(4-(2-methyl-5-(pyridin-4-yl)-3H-imidazo[4,5-b]pyridin-3-yl)phenyl)morpholine] | 101 to 500 nM |
| Cc1nc2ccc(-c3ccncc3)nc2n1-c1ccc(N2CCN(C)CC2)c(F)c1 [Compound 135, 3-(3-fluoro-4-(4-methylpiperazin-1-yl)phenyl)-2-methyl-5-(pyridin-4-yl)-3H-imidazo[4,5-b]pyridine] | 0.5 to 100 nM |
